Laboratory results published in patent publication US20150105252A1, “SUBSTITUTED PYRAZOLES AS HERBICIDES” (E I DU PONT DE NEMOURS AND COMPANY, priority 2013, published 2015).

Legend:
crabgrass, large [1] = test: Test A postemergence; assay type: in vivo, Digitaria sanguinalis
In short: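 After sowing in a sand–loam mix, pots received compound preemergence by directed soil spray, or postemergence once plants reached the one- to two-leaf stage (2–10 cm). Formulation contained surfactant in a non-phytotoxic solvent. Injury was scored visually after ~10 greenhouse days, 0–100 scale.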

wheat = test: Test C preemergence; assay type: in vivo, Triticum aestivum; conditions: preemergence; for Plant response rating, Wheat: 125 g ai/ha, scale 0 to 100, 0 = no effect, 100 = complete control
In short: (§1)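 Scores of 0 (no effect) to 100 (complete control) were assigned by eye after 13–15 days, comparing treated pots with controls. Soil-applied (preemergence) treatments went onto seeds in loam and sand; foliar (postemergence) treatments onto 1- to 4-leaf plants in peat medium.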

galium = test: Test C preemergence; assay type: in vivo, Galium aparine; conditions: preemergence; for Plant response rating, Galium: 125 g ai/ha, scale 0 to 100, 0 = no effect, 100 = complete control
In short: as §1

johnsongrass [2] = test: Test C preemergence; assay type: in vivo, Sorghum halepense; conditions: preemergence; for Plant response rating, Johnsongrass: 125 g ai/ha, scale 0 to 100, 0 = no effect, 100 = complete control
In short: as §1

soybean = test: Test C preemergence; assay type: in vivo, Glycine max; conditions: preemergence; for Plant response rating, Soybean: 125 g ai/ha, scale 0 to 100, 0 = no effect, 100 = complete control
In short: as §1

barnyardgrass = test: Test C preemergence; assay type: in vivo, Echinochloa crus-galli; conditions: preemergence; for Plant response rating, Barnyardgrass: 125 g ai/ha, scale 0 to 100, 0 = no effect, 100 = complete control
In short: as §1

oilseed rape = test: Test C preemergence; assay type: in vivo, Brassica napus; conditions: preemergence; for Plant response rating, Oilseed Rape: 125 g ai/ha, scale 0 to 100, 0 = no effect, 100 = complete control
In short: as §1

velvetleaf [3] = test: Test C preemergence; assay type: in vivo, Abutilon theophrasti; conditions: preemergence; for Plant response rating, Velvetleaf: 125 g ai/ha, scale 0 to 100, 0 = no effect, 100 = complete control
In short: as §1

blackgrass = test: Test C postemergence; assay type: in vivo, Alopecurus myosuroides; conditions: for Plant response rating (scale of 0 to 100 where 0 is no effect and 100 is complete control), Blackgrass: Postemergence, 31 g ai/ha, visually evaluated after 13 to 15 days; for Blackgrass plant response rating / Plant response rating, Blackgrass: postemergence; for Blackgrass plant response rating: 62 g ai/ha, scale 0 to 100
In short: as §1

crabgrass, large [4] = test: Test C postemergence; assay type: in vivo, Digitaria sanguinalis; conditions: for Plant response rating (scale of 0 to 100 where 0 is no effect and 100 is complete control), Crabgrass, Large: Postemergence, 31 g ai/ha, visually evaluated after 13 to 15 days; for Crabgrass, Large plant response rating / Plant response rating, Crabgrass, Large: postemergence; for Crabgrass, Large plant response rating: 62 g ai/ha, scale 0 to 100
In short: as §1

johnsongrass [5] = test: Test C postemergence; assay type: in vivo, Sorghum halepense; conditions: for Plant response rating (scale of 0 to 100 where 0 is no effect and 100 is complete control), Johnsongrass: Postemergence, 31 g ai/ha, visually evaluated after 13 to 15 days; for Johnsongrass plant response rating / Plant response rating, Johnsongrass: postemergence; for Johnsongrass plant response rating: 62 g ai/ha, scale 0 to 100
In short: as §1

morningglory = test: Test C postemergence; assay type: in vivo, Ipomoea coccinea; conditions: for Plant response rating (scale of 0 to 100 where 0 is no effect and 100 is complete control), Morningglory: Postemergence, 31 g ai/ha, visually evaluated after 13 to 15 days; for Morningglory plant response rating / Plant response rating, Morningglory: postemergence; for Morningglory plant response rating: 62 g ai/ha, scale 0 to 100
In short: as §1

velvetleaf [6] = test: Test C postemergence; assay type: in vivo, Abutilon theophrasti; conditions: postemergence; for Plant response rating, Velvetleaf: 250 g ai/ha, scale 0 to 100 (0 no effect, 100 complete control); for Velvetleaf plant response rating: scale 0 to 100
In short: as §1

chickweed = test: Test C postemergence; assay type: in vivo, Stellaria media; conditions: for Plant response rating (scale of 0 to 100 where 0 is no effect and 100 is complete control), Chickweed: Postemergence, 31 g ai/ha, visually evaluated after 13 to 15 days; for Chickweed plant response rating / Plant response rating, Chickweed: postemergence; for Chickweed plant response rating: 62 g ai/ha, scale 0 to 100
In short: as §1

[7] = Postemergence, 500 g ai/ha, 0 to 100 scale (0 no effect, 100 complete control)
[8] = postemergence, 125 g ai/ha, about 10 days, visual rating on 0 to 100 scale (0 no effect, 100 complete control)
[9] = 31 g ai/ha, visual rating, scale 0 to 100 (0 no effect, 100 complete control), 13 to 15 days
[10] = 62 g ai/ha, scale 0 to 100 (0 no effect, 100 complete control), 13 to 15 days
[11] = 250 g ai/ha, scale 0 to 100, 0 is no effect, 100 is complete control
[12] = 250 g ai/ha, scale 0 to 100 (0 no effect, 100 complete control)
[13] = 125 g ai/ha, scale 0 to 100, 0 no effect, 100 complete control

SMILES: Cc1cc(C(=O)NC(C)C)nn1Cc1ccnc(C(F)(F)F)c1 [Compound 197]
- Crabgrass, Large plant response rating (crabgrass, large [1]; [7]): 100
- Crabgrass, Large plant response rating (crabgrass, large [1]; [8]): 80
- Wheat plant response rating (wheat; [9]): 0
- Wheat plant response rating (wheat; [10]): 0
- Plant response rating, Wheat (wheat; 13 to 15 days): 5
- Wheat plant response rating (wheat; [11]): 80
- Galium plant response rating (galium; [9]): 90
- Galium plant response rating (galium; [10]): 100
- Plant response rating, Galium (galium; 13 to 15 days): 98
- Galium plant response rating (galium; [11]): 95
- Johnsongrass plant response rating (johnsongrass [2]; [9]): 10
- Johnsongrass plant response rating (johnsongrass [2]; [10]): 40
- Plant response rating, Johnsongrass (johnsongrass [2]; 13 to 15 days): 80
- Johnsongrass plant response rating (johnsongrass [2]; [11]): 85
- Soybean plant response rating (soybean; [9]): 45
- Soybean plant response rating (soybean; [10]): 80
- Plant response rating, Soybean (soybean; 13 to 15 days): 98
- Soybean plant response rating (soybean; [11]): 98
- Barnyardgrass plant response rating (barnyardgrass; [9]): 65
- Barnyardgrass plant response rating (barnyardgrass; [10]): 98
- Plant response rating, Barnyardgrass (barnyardgrass; 13 to 15 days): 100
- Barnyardgrass plant response rating (barnyardgrass; [11]): 100
- Oilseed Rape plant response rating (oilseed rape; [9]): 80
- Oilseed Rape plant response rating (oilseed rape; [10]): 95
- Plant response rating, Oilseed Rape (oilseed rape; 13 to 15 days): 95
- Oilseed Rape plant response rating (oilseed rape; [11]): 100
- Velvetleaf plant response rating (velvetleaf [3]; [9]): 25
- Velvetleaf plant response rating (velvetleaf [3]; [10]): 90
- Plant response rating, Velvetleaf (velvetleaf [3]; 13 to 15 days): 65
- Velvetleaf plant response rating (velvetleaf [3]; [11]): 100
- Plant response rating (scale of 0 to 100 where 0 is no effect and 100 is complete control), Blackgrass (blackgrass): 0
- Blackgrass plant response rating (blackgrass): 0
- Plant response rating, Blackgrass (blackgrass; [12]): 15
- Plant response rating, Blackgrass (blackgrass; [13]): 5
- Plant response rating (scale of 0 to 100 where 0 is no effect and 100 is complete control), Crabgrass, Large (crabgrass, large [4]): 5
- Crabgrass, Large plant response rating (crabgrass, large [4]): 5
- Plant response rating, Crabgrass, Large (crabgrass, large [4]; [12]): 15
- Plant response rating, Crabgrass, Large (crabgrass, large [4]; [13]): 10
- Plant response rating (scale of 0 to 100 where 0 is no effect and 100 is complete control), Johnsongrass (johnsongrass [5]): 0
- Johnsongrass plant response rating (johnsongrass [5]): 65
- Plant response rating, Johnsongrass (johnsongrass [5]; [12]): 5
- Plant response rating, Johnsongrass (johnsongrass [5]; [13]): 0
- Plant response rating (scale of 0 to 100 where 0 is no effect and 100 is complete control), Morningglory (morningglory): 75
- Morningglory plant response rating (morningglory): 75
- Plant response rating, Morningglory (morningglory; [12]): 98
- Plant response rating, Morningglory (morningglory; [13]): 65
- Plant response rating, Velvetleaf (velvetleaf [6]): 40
- Velvetleaf plant response rating (velvetleaf [6]): 40
- Plant response rating (scale of 0 to 100 where 0 is no effect and 100 is complete control), Chickweed (chickweed): 50
- Chickweed plant response rating (chickweed): 55
- Plant response rating, Chickweed (chickweed; [12]): 80
- Plant response rating, Chickweed (chickweed; [13]): 60

SMILES: CCCNC(=O)c1cc(CCC)n(Cc2cc(C(F)(F)F)nn2C)n1 [Compound 198]
- Crabgrass, Large plant response rating (crabgrass, large [1]; [7]): 100
- Crabgrass, Large plant response rating (crabgrass, large [1]; [8]): 90
- Wheat plant response rating (wheat; [9]): 5
- Wheat plant response rating (wheat; [10]): 35
- Plant response rating, Wheat (wheat; 13 to 15 days): 90
- Wheat plant response rating (wheat; [11]): 90
- Galium plant response rating (galium; [9]): 98
- Galium plant response rating (galium; [10]): 95
- Plant response rating, Galium (galium; 13 to 15 days): 100
- Galium plant response rating (galium; [11]): 100
- Johnsongrass plant response rating (johnsongrass [2]; [9]): 25
- Johnsongrass plant response rating (johnsongrass [2]; [10]): 80
- Plant response rating, Johnsongrass (johnsongrass [2]; 13 to 15 days): 100
- Johnsongrass plant response rating (johnsongrass [2]; [11]): 100
- Soybean plant response rating (soybean; [9]): 75
- Soybean plant response rating (soybean; [10]): 90
- Plant response rating, Soybean (soybean; 13 to 15 days): 98
- Soybean plant response rating (soybean; [11]): 98
- Barnyardgrass plant response rating (barnyardgrass; [9]): 100
- Barnyardgrass plant response rating (barnyardgrass; [10]): 100
- Plant response rating, Barnyardgrass (barnyardgrass; 13 to 15 days): 100
- Barnyardgrass plant response rating (barnyardgrass; [11]): 100
- Oilseed Rape plant response rating (oilseed rape; [9]): 95
- Oilseed Rape plant response rating (oilseed rape; [10]): 100
- Plant response rating, Oilseed Rape (oilseed rape; 13 to 15 days): 100
- Oilseed Rape plant response rating (oilseed rape; [11]): 100
- Velvetleaf plant response rating (velvetleaf [3]; [9]): 35
- Velvetleaf plant response rating (velvetleaf [3]; [10]): 85
- Plant response rating, Velvetleaf (velvetleaf [3]; 13 to 15 days): 100
- Velvetleaf plant response rating (velvetleaf [3]; [11]): 100
- Plant response rating (scale of 0 to 100 where 0 is no effect and 100 is complete control), Blackgrass (blackgrass): 0
- Blackgrass plant response rating (blackgrass): 20
- Plant response rating, Blackgrass (blackgrass; [12]): 30
- Plant response rating, Blackgrass (blackgrass; [13]): 40
- Plant response rating (scale of 0 to 100 where 0 is no effect and 100 is complete control), Crabgrass, Large (crabgrass, large [4]): 5
- Crabgrass, Large plant response rating (crabgrass, large [4]): 5
- Plant response rating, Crabgrass, Large (crabgrass, large [4]; [12]): 30
- Plant response rating, Crabgrass, Large (crabgrass, large [4]; [13]): 15
- Plant response rating (scale of 0 to 100 where 0 is no effect and 100 is complete control), Johnsongrass (johnsongrass [5]): 5
- Johnsongrass plant response rating (johnsongrass [5]): 5
- Plant response rating, Johnsongrass (johnsongrass [5]; [12]): 10
- Plant response rating, Johnsongrass (johnsongrass [5]; [13]): 5
- Plant response rating (scale of 0 to 100 where 0 is no effect and 100 is complete control), Morningglory (morningglory): 95
- Morningglory plant response rating (morningglory): 60
- Plant response rating, Morningglory (morningglory; [12]): 98
- Plant response rating, Morningglory (morningglory; [13]): 98
- Plant response rating, Velvetleaf (velvetleaf [6]): 50
- Velvetleaf plant response rating (velvetleaf [6]): 40
- Plant response rating (scale of 0 to 100 where 0 is no effect and 100 is complete control), Chickweed (chickweed): 70
- Chickweed plant response rating (chickweed): 70
- Plant response rating, Chickweed (chickweed; [12]): 80
- Plant response rating, Chickweed (chickweed; [13]): 80
